# Measurements from US20240350589A1, “IL-2/IL-15RBETAGAMMA AGONIST COMBINATION WITH ANTIBODY-DRUG CONJUGATES FOR TREATING CANCER” (Cytune Pharma, priority 2021, published 2024).
# Entries after “also recorded” stand apart in the source; their conditions may differ.
# Key:
# [1] = test system: huHER2/EMT-6 tumors; experiment: Orthotopic huHER2/EMT-6 breast cancer model in vivo; design: species or system Balb/c AnN mice; settings: RLI-15 1 mg/kg s.c. days 15-18, Kadcyla 15 mg/kg i.v. days 0 and 7
# Description: The study was initiated when the initial mean tumor volume among individual groups reached 140 mm^3. […] RLI-15 was administered in 4 sequential doses on study days 15-18 to amplify the numbers and activate immune cells. The antitumor efficacy was evaluated on the level of absolute tumor volume change. Safety has been monitored by body weight loss in individual animals. HER2 expression in individual tumors was analyzed using HercepTest™ (Dako) at the endpoint to map for potential heterogeneity of the model (staining was performed according to the instructions given by the manufacturer).
# [2] = test system: CD3-CD56+ cells (NK cells) of human PBMCs; experiment: In vitro activation of NK cells: RLI-15 treated PBMCs co-incubated with treated AGS tumor cells; type: cell-based
# Description: As controls non-treated tumor cells were incubated with non-treated PBMC (KadNT in the ADC group) and non-treated tumor cells were incubated with RLI-15 treated PBMC (KadNT in the RLI+ADC group).
# [3] = test system: AGS tumor cell line; experiment: Cell surface exposure of ICD markers CRT, HSP70, HSP90 on early apoptotic AGS cells (flow cytometry); type: cell-based, human; settings: doxorubicin 1.2 μM, cisplatin 100 μM 48 h vs Kadcyla 7 μg/ml 72 h
# Description: The cells are collected and washed twice with PBS. The cells are then incubated for 30 min with primary antibody diluted in cold blocking buffer (2% fetal bovine serum in PBS), followed by washing and incubation with an […] monoclonal secondary antibody in blocking solution. Each sample was then analyzed using a FACScan Aria (BD Bioscience). Cell surface expression of HSP70, HSP90 and CRT is analyzed on non-permeabilized annexin V-positive/DAPI-negative cells.
# The expression of ICD markers Hsp70, Hsp90 and CRT as well as NK cells ligands was measured by flow cytometry on these early apoptotic (AnnexinV^+/DAPI^−) cell populations using anti-calreticulin antibody (Abcam, USA), anti-HSP70 (R&D Systems, USA), anti-HSP90 (Enzo Life Sciences, USA). APC AffiniPure F(ab′)2 Fragment Goat Anti-Mouse (Jackson ImmunoResearch) was used as a secondary antibody.
# [4] = test system: AGS tumor cell line; experiment: In vitro killing of AGS tumor cells, AnnexinV/DAPI flow cytometry; type: cell-based, human; settings: doxorubicin 1.2 μM or cisplatin 100 μM 48 h; Kadcyla 7 μg/ml 72 h
# [5] = in vivo; cited from earlier work
molecule,measurement,setting,value
RLI-15: receptor-linker-interleukin fusion protein of the human IL-15Rα sushi+ fragment with the human IL-15 (SEQ ID NO: 9),tumor volume at the end of the study,[1],intermediate tumor volume increase
same,complete tumor eradication / complete and durable responses,[1]; groups of 8 mice,2 out of 8
same,proliferation of CD3-CD56+ NK cells,"[2]; PBMCs +/- 2.5 ng/ml RLI-15 72 h, AGS cells +/- Kadcyla 72 h, 10:1, 4 h",increase of total number of CD3−CD56^+ cells; also recorded: strong proliferation; also recorded: increase of total number of CD3^−CD56^+ cells
same,% of IFNγ+ NK cells,"[2]; PBMCs +/- 2.5 ng/ml RLI-15 72 h, AGS cells treated with Kadcyla 5-10 μg/ml 72 h, 10:1, 4 h",only moderate
same,"% of CD107a+ cells, KadNT group",[2]; RLI-15 treated PBMC with non-treated tumor cells,< 40%
COc1cccc2c1C(=O)c1c(O)c3c(c(O)c1C2=O)C[C@@](O)(C(=O)CO)C[C@@H]3O[C@H]1C[C@H](N)[C@H](O)[C@H](C)O1 [doxorubicin],mean fluorescent intensity (MFI) of ICD markers compared with Kadcyla,[3],about equal
same,induction of early apoptosis compared with Kadcyla,[4],even better suitable to induce early apoptosis
Todelvy,half-life,[5],16 h
N.N.[Cl][Pt][Cl] [cisplatin],mean fluorescent intensity (MFI) of ICD markers compared with Kadcyla,[3],stronger induction
same,induction of early apoptosis compared with Kadcyla,[4],equally
